According to ChEMBL document CHEMBL5257131, “Quantum Annealing Designs Nonhemolytic Antimicrobial Peptides in a Discrete Latent Space” (ACS Med Chem Lett, 2023):
Peptide text beside a SMILES is read from it.

Legend:
[1] = system: Escherichia coli; assay: Antimicrobial activity against Escherichia coli assessed as inhibition of microbial growth incubated for 26 hrs by micro-dilution test; type: functional
[2] = Hemolytic activity in rabbit RBC assessed as hemolysis at 100 uM incubated for 6 hrs by Uv-vis spectrophotometric analysis; type: toxicity, cell-based, Oryctolagus cuniculus; settings: erythrocyte
[3] = Hemolytic activity in human erythrocytes assessed as hemolysis at 1 uM incubated for 1 hrs by spectrophotometric analysis relative to control; type: toxicity, cell-based, Erythrocyte; settings: read-out: Activity

Row | SMILES | MIC [1] [µg/mL] | Activity [2] | hemolysis at 1 h, 1 µM [3] [%]
1 | CC(C)C[C@H](NC(=O)[C@H](CC(N)=O)NC(=O)[C@H](CCCCN)NC(=O)[C@H](CC(C)C)NC(=O)[C@@H](NC(=O)[C@H](CCCCN)NC(=O)[C@H](Cc1ccccc1)NC(=O)CN)[C@@H](C)O)C(=O)N[C@@H](C)C(=O)N[C@@H](CCCCN)C(=O)N[C@@H](CCCCN)C(=O)N[C@H](C(=O)N[C@@H](C)C(=O)N[C@@H](CCCCN)C(=O)N[C@@H](CCCCN)C(=O)N[C@H](C(=O)N[C@@H](CC(C)C)C(=O)N[C@@H](CCCCN)C(=O)N[C@@H](C)C(=O)N[C@H](C(=O)N[C@@H](CCCNC(=N)N)C(=O)O)C(C)C)C(C)C)C(C)C (H-GFKTLKNLAKKVAKKVLKAVR-OH) | 6.25 | Non-Toxic | –
2 | CC[C@H](C)[C@H](NC(=O)CNC(=O)[C@H](CCCCN)NC(=O)[C@H](C)NC(=O)[C@@H](NC(=O)[C@H](CCCCN)NC(=O)[C@H](CCCCN)NC(=O)[C@H](CC(C)C)NC(=O)[C@@H](NC(=O)[C@@H](NC(=O)[C@@H](NC(=O)[C@H](CC(C)C)NC(=O)CN)C(C)C)[C@@H](C)O)C(C)C)C(C)C)C(=O)N[C@H](C(=O)N[C@@H](CCCCN)C(=O)N[C@H](C(=O)N[C@@H](C)C(=O)N[C@@H](CO)C(=O)N[C@@H](CCCCN)C(=O)N[C@H](C(=O)NCC(=O)N[C@@H](CO)C(=O)N[C@@H](CCCCN)C(=O)N[C@@H](CCC(=O)O)C(=O)N[C@@H](CC(C)C)C(=O)O)C(C)C)[C@@H](C)O)C(C)C (H-GLVTVLKKVAKGIVKTASKVGSKEL-OH) | > 100 | – | –
3 | CC1(C)S[C@@H]2[C@H](NC(=O)[C@H](N)c3ccccc3)C(=O)N2[C@H]1C(=O)O [AMPICILLIN] | 6.25 | – | –
4 | CC[C@H](C)[C@H](NC(=O)CN)C(=O)NCC(=O)N[C@@H](C)C(=O)N[C@H](C(=O)N[C@@H](CC(C)C)C(=O)N[C@@H](CCCCN)C(=O)N[C@H](C(=O)N[C@@H](CC(C)C)C(=O)N[C@H](C(=O)N[C@H](C(=O)NCC(=O)N[C@@H](CC(C)C)C(=O)N1CCC[C@H]1C(=O)N[C@@H](C)C(=O)N[C@@H](CC(C)C)C(=O)N[C@H](C(=O)N[C@@H](CO)C(=O)N[C@@H](Cc1c[nH]c2ccccc12)C(=O)N[C@H](C(=O)N[C@@H](CCCCN)C(=O)N[C@@H](CCCNC(=N)N)C(=O)N[C@@H](CCCCN)C(=O)N[C@@H](CCCNC(=N)N)C(=O)N[C@@H](CCC(N)=O)C(=O)N[C@@H](CCC(N)=O)C(N)=O)[C@@H](C)CC)[C@@H](C)CC)[C@@H](C)O)[C@@H](C)O)C(C)C)C(C)C [MELITTIN] | – | – | 90
